The subject of series [1] is MDA-MB231 cells. In words: Growth inhibition of ER-negative MDA-MB231 cells, MTS assay. As to conditions: for growth inhibitory activity: ER-negative MDA-MB231 cells, 72 h, MTS; for toxicity to cells: MDA-MB231 cells, 25 μM. In general terms: Tetrazolium assays rely on reduction of a dye to a coloured formazan, in cell work by metabolically active cells.
Series [2] concerns ATCC MCF7 cells (ERα expressing). In words: Inhibition of E2-induced proliferation, MTS assay, ATCC MCF7 expressing only ERα. It is filed as cell-based, human. As to conditions: 1 nM E2, 6 days.

Experimental findings from PMC2676897 (Bioorganic & medicinal chemistry letters, 2009) are described below.

As for `O=C(c1ccc(OCCN2CCCCC2)cc1)c1c(-c2ccc(O)cc2)sc2cc(O)ccc12` [RAL, Raloxifene, reference compound], in series [1], the growth inhibitory activity result was “did not demonstrate significant growth inhibitory activity” and the toxicity to cells entry was “toxicity”.
For `CCCC[C@@H]1C[C@H]1[C@@H](N)c1ccc(-c2ccc(O)cc2)cc1F.Cl` [Compound 13], in that order: “did not demonstrate significant growth inhibitory activity” and “toxicity”.
For the molecule `CCCC[C@@H]1C[C@H]1[C@@H](NC(=O)c1ccccc1)c1ccc(-c2ccc(O)cc2)cc1F` [Compound 11b], in series [2], the “GI50, inhibition of E2-induced proliferation” value is reported as “did not demonstrate inhibition”. Also, in series [1], the growth inhibitory activity result was “did not demonstrate significant growth inhibitory activity” and the toxicity to cells entry was “toxicity”.
